Data as given in patent US6355799B1, “Substituted benzene compounds, process for their preparation, and herbicidal and defoliant compositions containing them” (ISK Americas Incorporated, priority 1997, dated 2002).

Key:
Type in all cases: in vivo
[1] = test system: field corn (Zea mays L., var. Dekalb 535, CORN); test: Post-emerge test, crop safety; settings: rating scale 0-100 (0 no damage, 100 complete death), 14 days after application
Outline: (§1)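 Fourteen days after spraying, crop and weed injury was graded visually from 0, no effect, to 100, every plant dead. Test substances were dissolved in acetone and applied at 15–1000 g ai/ha with a flat-fan nozzle. Application was either pre-emergence, one day after sowing, or post-emergence at the 2–3 leaf stage.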

[2] = test system: upland rice (Oryza sp., var. Tebonnet, RICE); test: Post-emerge test, crop safety; settings: rating scale 0-100 (0 no damage, 100 complete death), 14 days after application
Outline: as §1

[3] = test system: johnsongrass (Sorghum halepense, SORHA); test: Post-emerge test, greenhouse herbicide activity screening; settings: rating scale 0-100 (0 no damage, 100 complete death), 14 days after application
Outline: (§2)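 Herbicidal damage is scored 0 (none) to 100 (complete plant death) two weeks after a simulated field spray. Rates span 15–1000 g ai/ha, delivered in acetone at 187 l/ha. For post-emergence treatments, plants have 2–3 leaves and the spray carries 0.25% v/v non-ionic surfactant.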

[4] = test system: velvetleaf (Abutilon theophrasti, ABUTH); test: as above; settings: rating scale 0-100 (0 no damage, 100 complete death), 14 days after application
Outline: as §2

[5] = test system: lambsquarters (Chenopodium album, CHEAL); test: as above; settings: rating scale 0-100 (0 no damage, 100 complete death), 14 days after application
Outline: as §2

[6] = test system: sicklepod (Cassia obtusifolia, CASOB); test: as above; settings: rating scale 0-100 (0 no damage, 100 complete death), 14 days after application
Outline: as §2

[7] = test system: ivyleaf morningglory (Ipomoea hederacea, IPOHE); test: as above; settings: rating scale 0-100 (0 no damage, 100 complete death), 14 days after application
Outline: as §2

[8] = test system: green foxtail (Setaria viridis, SETVI); test: as above; settings: rating scale 0-100 (0 no damage, 100 complete death), 14 days after application
Outline: as §2

[9] = test system: large crabgrass (Digitaria sanguinalis, DIGSA); test: as above; settings: rating scale 0-100 (0 no damage, 100 complete death), 14 days after application
Outline: as §2

[10] = test system: barnyardgrass (Echinochloa crus-galli, ECHCG); test: as above; settings: rating scale 0-100 (0 no damage, 100 complete death), 14 days after application
Outline: as §2

[11] = test system: redroot pigweed (Amaranthus retroflexus, AMARE); test: as above; settings: rating scale 0-100 (0 no damage, 100 complete death), 14 days after application
Outline: as §2

[12] = test system: johnsongrass (Sorghum halepense, SORHA); test: Pre-emerge test, greenhouse herbicide activity screening; settings: rating scale 0-100, 14 days after application
Outline: as §1

[13] = test system: velvetleaf (Abutilon theophrasti, ABUTH); test: as above; settings: rating scale 0-100, 14 days after application
Outline: as §1

[14] = test system: lambsquarters (Chenopodium album, CHEAL); test: as above; settings: rating scale 0-100, 14 days after application
Outline: as §1

[15] = test system: sicklepod (Cassia obtusifolia, CASOB); test: as above; settings: rating scale 0-100, 14 days after application
Outline: as §1

[16] = test system: ivyleaf morningglory (Ipomoea hederacea, IPOHE); test: as above; settings: rating scale 0-100, 14 days after application
Outline: as §1

[17] = test system: green foxtail (Setaria viridis, SETVI); test: as above; settings: rating scale 0-100, 14 days after application
Outline: as §1

[18] = test system: large crabgrass (Digitaria sanguinalis, DIGSA); test: as above; settings: rating scale 0-100, 14 days after application
Outline: as §1

[19] = test system: barnyardgrass (Echinochloa crus-galli, ECHCG); test: as above; settings: rating scale 0-100, 14 days after application
Outline: as §1

[20] = test system: redroot pigweed (Amaranthus retroflexus, AMARE); test: as above; settings: rating scale 0-100, 14 days after application
Outline: as §2

[21] = test system: field corn (Zea mays L., var. Dekalb 535, CORN); test: Pre-emerge test, crop safety; settings: rating scale 0-100, 14 days after application
Outline: (§3)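 Visual ratings on a 0-100 scale (0 no damage, 100 all plants dead) were taken at 14 days after treatment. Rates of 15-1000 g ai/ha in acetone, 187 l/ha, were sprayed onto soil one day after planting (pre-emerge) or onto 2-3 leaf plants with 0.25% v/v surfactant (post-emerge).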

[22] = test system: upland rice (Oryza sp., var. Tebonnet, RICE); test: Pre-emerge test, crop safety; settings: rating scale 0-100, 14 days after application
Outline: as §3

In the case of `C#CCOC(=O)C(Cl)Cc1c(OC)c(Cl)cc(F)c1-n1c(=O)cc(C(F)(F)F)n(C)c1=O` (single isomer, unassigned) [14-20], the “Post-emerge phytotoxicity rating CORN (crop damage)” value ([1]; Rate 63 g ai/ha) is reported as 0, the “Post-emerge phytotoxicity rating CORN (crop damage)” value ([1]; Rate 250 g ai/ha) is reported as 80 and the “Post-emerge phytotoxicity rating RICE (crop damage)” value ([2]; Rate 63 g ai/ha) is reported as 0. The “Post-emerge phytotoxicity rating RICE (crop damage)” value ([2]; Rate 250 g ai/ha) was 10, the “Post-emerge Herbicidal Activity, phytotoxicity rating SORHA” value ([3]; Rate 63 g ai/ha) was 10 and the “Post-emerge Herbicidal Activity, phytotoxicity rating SORHA” value ([3]; Rate 250 g ai/ha) was 90. The “Post-emerge Herbicidal Activity, phytotoxicity rating ABUTH” value ([4]; Rate 63 g ai/ha) was 99, the “Post-emerge Herbicidal Activity, phytotoxicity rating ABUTH” value ([4]; Rate 250 g ai/ha) was 100 and the “Post-emerge Herbicidal Activity, phytotoxicity rating CHEAL” value ([5]; Rate 63 g ai/ha) was 80. For the same compound, the “Post-emerge Herbicidal Activity, phytotoxicity rating CHEAL” value ([5]; Rate 250 g ai/ha) was 100, the “Post-emerge Herbicidal Activity, phytotoxicity rating CASOB” value ([6]; Rate 63 g ai/ha) was 0 and the “Post-emerge Herbicidal Activity, phytotoxicity rating CASOB” value ([6]; Rate 250 g ai/ha) was 50. The “Post-emerge Herbicidal Activity, phytotoxicity rating IPOHE” value ([7]; Rate 63 g ai/ha) was 50, the “Post-emerge Herbicidal Activity, phytotoxicity rating IPOHE” value ([7]; Rate 250 g ai/ha) was 70 and the “Post-emerge Herbicidal Activity, phytotoxicity rating SETVI” value ([8]; Rate 63 g ai/ha) was 0. The “Post-emerge Herbicidal Activity, phytotoxicity rating SETVI” value ([8]; Rate 250 g ai/ha) was 50, the “Post-emerge Herbicidal Activity, phytotoxicity rating DIGSA” value ([9]; Rate 63 g ai/ha) was 100 and the “Post-emerge Herbicidal Activity, phytotoxicity rating DIGSA” value ([9]; Rate 250 g ai/ha) was 100. For the same compound, the “Post-emerge Herbicidal Activity, phytotoxicity rating ECHCG” value ([10]; Rate 63 g ai/ha) was 100, the “Post-emerge Herbicidal Activity, phytotoxicity rating ECHCG” value ([10]; Rate 250 g ai/ha) was 100 and the “Post-emerge Herbicidal Activity, phytotoxicity rating AMARE” value ([11]; Rate 63 g ai/ha) was 95. The “Post-emerge Herbicidal Activity, phytotoxicity rating AMARE” value ([11]; Rate 250 g ai/ha) was 100, the “Pre-emerge herbicidal activity, phytotoxicity rating SORHA” value ([12]; 63 g ai/ha) was 0 and the “Pre-emerge herbicidal activity, phytotoxicity rating SORHA” value ([12]; 250 g ai/ha) was 20. For the same compound, the “Pre-emerge herbicidal activity, phytotoxicity rating ABUTH” value ([13]; 63 g ai/ha) was 0, the “Pre-emerge herbicidal activity, phytotoxicity rating ABUTH” value ([13]; 250 g ai/ha) was 90 and the “Pre-emerge herbicidal activity, phytotoxicity rating CHEAL” value ([14]; 63 g ai/ha) was 0. The “Pre-emerge herbicidal activity, phytotoxicity rating CHEAL” value ([14]; 250 g ai/ha) was 80, the “Pre-emerge herbicidal activity, phytotoxicity rating CASOB” value ([15]; 63 g ai/ha) was 0 and the “Pre-emerge herbicidal activity, phytotoxicity rating CASOB” value ([15]; 250 g ai/ha) was 0. For the same compound, the “Pre-emerge herbicidal activity, phytotoxicity rating IPOHE” value ([16]; 63 g ai/ha) was 0, the “Pre-emerge herbicidal activity, phytotoxicity rating IPOHE” value ([16]; 250 g ai/ha) was 0 and the “Pre-emerge herbicidal activity, phytotoxicity rating SETVI” value ([17]; 63 g ai/ha) was 0. For the same compound, the “Pre-emerge herbicidal activity, phytotoxicity rating SETVI” value ([17]; 250 g ai/ha) was 30, the “Pre-emerge herbicidal activity, phytotoxicity rating DIGSA” value ([18]; 63 g ai/ha) was 0 and the “Pre-emerge herbicidal activity, phytotoxicity rating DIGSA” value ([18]; 250 g ai/ha) was 90. The “Pre-emerge herbicidal activity, phytotoxicity rating ECHCG” value ([19]; 63 g ai/ha) was 0, the “Pre-emerge herbicidal activity, phytotoxicity rating ECHCG” value ([19]; 250 g ai/ha) was 40 and the “Pre-emerge herbicidal activity, phytotoxicity rating AMARE” value ([20]; 63 g ai/ha) was 50. For the same compound, the “Pre-emerge herbicidal activity, phytotoxicity rating AMARE” value ([20]; 250 g ai/ha) was 100, the “Pre-emerge phytotoxicity rating, crop damage CORN” value ([21]; 63 g ai/ha) was 0 and the “Pre-emerge phytotoxicity rating, crop damage CORN” value ([21]; 250 g ai/ha) was 50. The “Pre-emerge phytotoxicity rating, crop damage RICE” value ([22]; 63 g ai/ha) was 0 and the “Pre-emerge phytotoxicity rating, crop damage RICE” value ([22]; 250 g ai/ha) was 0.
